The values that follow come from US20230381204A1, “COMPOSITIONS FOR TREATING INFLAMMATIONS, WOUNDS AND SCARRING” (priority 2020, published 2023).

The test system of data set [1] is RAW 264.7 cells. Nature of the data set: MTT cell viability (toxicity evaluation) in RAW 264.7 cells. In kind it is cell-based, Mouse. To be noted: positive control for viability, 0.1%; 24 hr. How it is done:
The assay was performed on 15 Tested Samples in triplicates (the Tested Samples are labeled 1-11 and 13-16). RAW 264.7 cells (1.7×10^5 ¢/ml, by counting) were seeded in 96 well plates containing […] of complete growth medium (see formulation section). The cells were incubated at 37° C. with 5% CO2 for 24 hr. The medium was aspirated and replaced by LPS-containing medium (25 ng/ml) with or without the Tested Samples at four different concentrations, as described below. In addition, Naive cells (Group 1), vehicle treated cells (Group 2), Stimulated Control (Group 3) and Stimulated Vehicle Control (Group 4) served as negative controls. SDS (Group 5) and Dexamethasone (Group 6) served as positive controls for viability and anti-inflammatory assays, respectively. The blank control group was included in the assay (Group 11), and subtracted from all treatments. The cells were incubated at 37° C. with 5% CO2 for 24 hr. At the end of incubation, the viability of the cells was measured using the MTT assay. Viability greater than 85% was considered nontoxic.

Data set [2] concerns TNFα. Nature of the data set: LPS-induced TNFα secretion in RAW 264.7 cells (ELISA). In kind it is cell-based, Mouse.
Protocol: RAW 264.7 cells (170×105 ¢/ml, by counting) were seeded in 96 well plates containing 170 μl/well of complete growth medium (See formulation section). The cells were incubated at 37° C. with 5% CO2 for 24 hr. The medium was aspirated and replaced by LPS-containing medium (25 ng/ml) with or without the Tested Samples at two different concentrations (similarly to what is presented in Table 1). In addition, Naïve cells (Group 1), vehicle treated cells (Group 2), Stimulated Control (Group 3) and Stimulated Vehicle Control (Group 4) served as negative controls. SDS (Group 5) and Dexamethasone (Group 6) served as positive controls for viability and anti-inflammatory assays, respectively. A Blank control group was included in the assay (Group 11), and subtracted from all treatments.
The cells were incubated at 37° C. with 5% CO2 for 24 hr. At the end of incubation, the viability of the cells was measured using the MTT assay, according to SOP. Viability greater than 85% was considered nontoxic. In addition, the spent media from all test groups was collected under standardized conditions and centrifuged at 250×g for 5 min to remove particulates. Clear supernatants were frozen at −70° C. until cytokine analysis. IL-1α, TNFα and IL-6 levels were measured by ELISA, according to manufacturer instructions.
Cell culturing and treatments was performed under sterile conditions. Experiments were carried out in a certified RAW 264.7 cells (Mouse monocyte macrophage) obtained originally from ECACC. The cells were incubated at 37° C. with 5% CO2 for 24 hr. Then, the medium
was aspirated and replaced by LPS-containing medium (25 ng/ml) with or without the Tested Samples. In addition, Naïve cells, vehicle treated cells, Stimulated Control and Stimulated Vehicle Control served as negative controls. Dexamethasone served as positive controls for anti-inflammatory assays. Blank control group was included in the assay, and subtracted from all treatments.
The anti-inflammatory activity of the Tested Samples was examined in the LPS-induced inflammatory model (RAW 264.7 cells) and the secretion of three cytokines was monitored. […] IL-1α, TNFα and IL-6 levels were measured by ELISA, according to manufacturer instructions.
Experiments were carried out in a certified RAW 264.7 cells (Mouse monocyte macrophage) obtained originally from ECACC. RAW 264.7 cells (approx. 2×105 ¢/ml, by counting) were seeded in 96 well plates containing 170 μl/well of complete growth medium. The cells were incubated at 37° C. with 5% CO2 for 24. Next, the medium was aspirated and replaced by LPS-containing medium (25 ng/ml) with or without the Tested Samples.
In addition, Naïve cells, vehicle treated cells, Stimulated Control and Stimulated Vehicle Control served as controls (FIG. 4A). […]
The test system of data set [3] is IL-1α. As to the kind of experiment: LPS-induced IL-1α secretion in RAW 264.7 cells (ELISA). In kind it is cell-based. To be noted: Mus musculus, read-out: IL-1 alpha inhibition. How it is done:
(§1) RAW 264.7 cells ([…] ¢/ml, by counting) were seeded in 96 well plates containing 170 μl/well of complete growth medium (See formulation section). The cells were incubated at 37° C. with 5% CO2 for 24 hr. The medium was aspirated and replaced by LPS-containing medium (25 ng/ml) with or without the Tested Samples at two different concentrations (similarly to what is presented in Table 1). In addition, Naïve cells (Group 1), vehicle treated cells (Group 2), Stimulated Control (Group 3) and Stimulated Vehicle Control (Group 4) served as negative controls. SDS (Group 5) and Dexamethasone (Group 6) served as positive controls for viability and anti-inflammatory assays, respectively. A Blank control group was included in the assay (Group 11), and subtracted from all treatments.
(§2) The cells were incubated at 37° C. with 5% CO2 for 24 hr. At the end of incubation, the viability of the cells was measured using the MTT assay, according to SOP. […] IL-1α, TNFα and IL-6 levels were measured by ELISA, according to manufacturer instructions. […]
(§3) The anti-inflammatory activity of the Tested Samples was examined in the LPS-induced inflammatory model (RAW 264.7 cells) and the secretion of three cytokines was monitored. Then, the compatibility and possible synergistic action of selected combination was determined. IL-1α, TNFα and IL-6 levels were measured by ELISA, according to manufacturer instructions.

Data set [4] has as its system IL-6. Nature of the data set: LPS-induced IL-6 secretion in RAW 264.7 cells (ELISA). The data set is classed as cell-based. Particulars: Mus musculus, RAW264.7, LPS 25 ng/ml, 24 hr. The procedure: as §1, §2, §3

With `CCCCCCCCCCCCOS(=O)(=O)[O-].[Na+]` [SDS], the “cell viability (MTT)” value in data set [1] was “toxic and caused a significant reduction in cell viability”.

Turning to `CCCCCc1cc(O)c(C/C=C(\C)CCC=C(C)C)c(O)c1` [CBG, cannabigerol], the inhibition at 2 µg/mL in data set [2] (Mus musculus, RAW264.7, 24 h, read-out: TNF alpha inhibition) stood at 26.8%; in data set [3] (RAW264.7, 24 h), 12.9%.

Turning to `NC(=O)NC1NC(=O)NC1=O` (stereo not drawn) [allantoin], in data set [2] (2 μg/ml alone, LPS 25 ng/ml), the TNF alpha inhibition result is “no activity”.

In the case of `C=C(C)[C@@H]1CCC(C)=C[C@H]1c1c(O)cc(CCCCC)cc1O` [CBD, cannabidiol], the inhibition at 0.1 µg/mL in data set [2] (Mus musculus, RAW264.7, 0.1 μg/ml alone, LPS 25 ng/ml, 24 hr, read-out: TNF alpha inhibition) stood at 12.3%; in data set [4] (0.1 μg/ml alone), 8.2%. Moreover, the inhibition at 0.5 µg/mL in data set [2] (Mus musculus, RAW264.7, 0.5 μg/ml alone, LPS 25 ng/ml, 24 hr, read-out: TNF alpha inhibition) came to 22.6%; in data set [4] (0.5 μg/ml alone), 10.6%; in data set [3] (RAW264.7, 0.5 μg/ml alone, LPS 25 ng/ml, 24 hr), 7.6%.
